Laboratory results published in patent publication US5877147A, “Compounds for medicinal use” (Peptech (UK) Limited, priority 1993, dated 1999).

Assays:
[1] = that of MDP = 100%; cited from earlier work
[2] = test system: IgA; assay: IgA levels in treated patients (mucosal immunity); format: in vivo, human; settings: in words
[3] = test system: immunoglobulin (Ig) in serum; settings: 3 days after 1 mg GMDP orally x 10 days
Description: (§1) The study group consisted of 50 women between 20 and 30 years of age (mean 26.7) with HPV of the cervix. The duration of the disease varied from 1 to 3.5 years. […] To control for variation in Ig content of cervical secretions during the menstrual cycle, treatment was commenced 8-10 days after the beginning of the period.
(§2) A number of immunological parameters were monitored before the beginning of treatment; immunoglobulin (Ig) in serum (radial immunodiffusion), Ig in saliva and genital tract secretions (ELISA), subpopulations of immune cells (immunocytofluorimetry).
(§3) Follow up studies on the clinical progression of the HPV infection were performed
(§4) Control values for immunological parameters were also taken from a group of women free of HPV infection. Their age range was 20 to 30 years with a mean of 25.6.

[4] = test system: subpopulations of immune cells; settings: blood, 3 days after 1 mg GMDP orally x 10 days
Description: as §1, §2, §3, §4

[5] = test system: Ig in saliva and genital tract secretions; settings: 3 days after 1 mg GMDP orally x 10 days
Description: as §1, §2, §3, §4

[6] = test system: Human Papilloma Virus (HPV) infection of the uterine cervix
Description: as §1, §3

[7] = test system: mice; settings: cited from earlier work
[8] = test system: melanoma metastases; settings: orally administered, non-liposome encapsulated; cited from earlier work
[9] = test system: lung and peritoneal macrophages; settings: orally administered, non-liposome encapsulated; cited from earlier work

Compound: CC(=O)NC1C(OC2C(CO)OC(O)C(NC(C)=O)C2OC(C)C(=O)NC(C)C(=O)NC(CCC(=O)O)C(N)=O)OC(CO)C(O)C1O [GMDP, N-acetyl-D-glucosaminyl-(β1-4)-N-acetylmuramyl-L-alanyl-D-isoglutamine]
- pyrogenicity relative to MDP [1]: about 50%
- levels of IgA in treated patients [2]: especially high
- Serum IgM, after treatment ([3]; before 123.8 ± 10.4, spread 11.2, p<0.01 vs before): 160.8 mg/dL
- Serum IgA, after treatment ([3]; before 216.0 ± 16.8, spread 18.2): 228.7 mg/dL
- Serum IgG, after treatment ([3]; before 1424 ± 48, spread 51, p<0.01 vs before): 1258 mg/dL
- B-cells %, after treatment ([4]; before 5.30 ± 0.8, spread 1.07): 5.08%
- CD16 +ve %, after treatment ([4]; before 16.3 ± 2.1, spread 2.3): 13.1%
- CD8 +ve %, after treatment ([4]; before 24.2 ± 2.87, spread 3.17): 20.3%
- Lymphocytes %, after treatment ([4]; before 34.11 ± 3.16, spread 2.68): 35.77%
- CD4 +ve %, after treatment ([4]; before 34.6 ± 3.1, spread 3.8): 41.8%
- CD3 ve %, after treatment ([4]; before 55.8 ± 4.1, spread 3.6): 59.12%
- B-cells absolute, after treatment ([4]; before 80.1 ± 12.1, spread 21.7): 103.8
- CD16 +ve absolute, after treatment ([4]; before 246.3 ± 31.7, spread 47.1): 268.1
- CD8 +ve absolute, after treatment ([4]; before 365.7 ± 43.4, spread 64.9): 415.3
- Mucus of uterine cervix IgD, after treatment ([5]; before 0.326 ± 0.16, spread 0.17): 0.315 mg/dL
- Saliva IgM, after treatment ([5]; before 3.17 ± 1.05, spread 1.11): 1.65 mg/dL
- Mucus of uterine cervix IgM, after treatment ([5]; before 3.18 ± 2.21, spread 1.65): 1.8 mg/dL
- Mucus of uterine cervix IgG, after treatment ([5]; before 9.57 ± 2.19, spread 3.01): 12.01 mg/dL
- Saliva IgA, after treatment ([5]; before 11.45 ± 3.48, spread 2.98): 13.16 mg/dL
- Saliva IgG, after treatment ([5]; before 16.19 ± 4.01, spread 4.88): 15.05 mg/dL
- Saliva sIgA, after treatment ([5]; before 26.53 ± 5.23, spread 4.96): 25.46 mg/dL
- Recurrence of HPV, number of patients ([6]; 30 in group, 1 mg GMDP orally daily for 10 days, adjunct therapy, placebo 7 of 20): 3
- Recurrence of HPV, % of group ([6]; 30 in group, 1 mg GMDP orally daily for 10 days, adjunct therapy, placebo 35%): 10%
- Full Cure, number of patients ([6]; 30 in group, 1 mg GMDP orally daily for 10 days, adjunct to antibiotics, laser and cryotherapy, placebo 13 of 20): 27
- Full Cure, % of group ([6]; 30 in group, 1 mg GMDP orally daily for 10 days, adjunct to laser and cryotherapy, placebo 65%): 90%
- rate of cure versus placebo group ([6]; GMDP as adjunct to laser and cryotherapy, in words): increase in the rate of cure
- LD50 (acute toxicity) [7]: 7000 mg/kg

Compound: CCCCCCCCCCCCCCCC(=O)OC[C@H](COP(=O)([O-])OCCNC(=O)[C@H](C)NC(=O)CC[C@@H](NC(=O)[C@H](C)NC(=O)[C@@H](C)O[C@H]1[C@H](O)[C@@H](CO)OC(O)[C@@H]1NC(C)=O)C(N)=O)OC(=O)CCCCCCCCCCCCCCC.O.[Na+] (stereo partly drawn) [MTP-PE, N-acetyl-muramyl-L-alanyl-D-isoglutaminyl-L-alanyl-2-(1',2'-dipalmitoyl-sn-glycero-3'-hydroxy-phosphoryloxy)ethylamide, monosodium]
- eradicating well established melanoma metastases [8]: not effective
- inhibiting lung and lymph node metastasis [8]: effective
- tumouricidal activity in lung and peritoneal macrophages [9]: produced tumouricidal activity

Compound: N-acetyl-D-glucosaminyl-(β1-4)-N-acetylmuramyl-L-alanyl-D-glutamic acid [GMDP-A]
- levels of IgA in treated patients [2]: especially high
